Columns and labels:
[1] = test system: HEp-2; experiment: Effect on vacuole response in the HEp-2 cells; type: functional, Homo sapiens
[2] = test system: Suncus murinus; experiment: Effect on latency at dose 16 ug/Kg administered ip; type: functional
[3] = test system: Suncus murinus; experiment: Effect on latency at dose 16 ug/Kg administered po; type: functional
[4] = test system: Suncus murinus; experiment: Effect on latency at dose 32 ug/Kg administered ip; type: functional
[5] = test system: Suncus murinus; experiment: Effect on latency at dose 32 ug/Kg administered po; type: functional
[6] = test system: Suncus murinus; experiment: Effect on latency at dose 4 ug/Kg administered ip; type: functional
[7] = test system: Suncus murinus; experiment: Effect on latency at dose 8 ug/Kg administered ip; type: functional
[8] = test system: Suncus murinus; experiment: Effect on number of suncus vomited at dose 16 ug/Kg administered ip (out of 5); type: functional
[9] = test system: Suncus murinus; experiment: Effect on number of suncus vomited at dose 2 ug/Kg administered ip (out of 3); type: functional
[10] = test system: Suncus murinus; experiment: Effect on number of suncus vomited at dose 32 ug/Kg administered ip (out of 5); type: functional
[11] = test system: Suncus murinus; experiment: Effect on number of suncus vomited at dose 4 ug/Kg administered ip (out of 5); type: functional
[12] = test system: Suncus murinus; experiment: Effect on number of suncus vomited at dose 4 ug/Kg administered po (out of 5); type: functional
[13] = test system: Suncus murinus; experiment: Effect on number of suncus vomited at dose 8 ug/Kg administered ip (out of 5); type: functional
[14] = test system: Suncus murinus; experiment: Effect on number of suncus vomited at dose 8 ug/Kg administered po (out of 5); type: functional
[15] = test system: Suncus murinus; experiment: Effect on number of vomiting episodes at dose 16 ug/Kg administered ip; type: functional
[16] = test system: Suncus murinus; experiment: Effect on number of vomiting episodes at dose 16 ug/Kg administered po; type: functional
[17] = test system: Suncus murinus; experiment: Effect on number of vomiting episodes at dose 32 ug/Kg administered ip; type: functional
[18] = test system: Suncus murinus; experiment: Effect on number of vomiting episodes at dose 32 ug/Kg administered po; type: functional
[19] = test system: Suncus murinus; experiment: Effect on number of vomiting episodes at dose 4 ug/Kg administered ip; type: functional
[20] = test system: Suncus murinus; experiment: Effect on number of vomiting episodes at dose 8 ug/Kg administered ip; type: functional
[21] = test system: Suncus murinus; experiment: Effect on number of vomiting episodes at dose 8 ug/Kg administered po; type: functional
[22] = test system: Suncus murinus; experiment: Effect on latency at dose 8 ug/Kg administered po; type: functional
[23] = test system: Suncus murinus; experiment: Effect on number of suncus vomited at dose 16 ug/Kg administered po (out of 5); type: functional
[24] = test system: Suncus murinus; experiment: Effect on number of suncus vomited at dose 32 ug/Kg administered po (out of 5); type: functional
[25] = test system: Suncus murinus; experiment: Effect on number of suncus vomited at dose 8 ug/Kg administered ip; type: functional

## CC(=O)OC[C@@H](C)NC(=O)[C@@H](CC(C)C)OC(=O)[C@@H](NC(=O)[C@@H](OC(=O)[C@@H](C)NC(=O)[C@@H](CC(C)C)OC(=O)[C@@H](NC(=O)[C@@H](OC(=O)[C@@H](C)NC(=O)[C@@H](CC(C)C)OC(=O)[C@@H](NC(=O)[C@@H](OC(C)=O)C(C)C)C(C)C)C(C)C)C(C)C)C(C)C)C(C)C
[1]
  Vacuole response: >20000 ng/mL

## CC(C)C[C@@H](OC(=O)[C@@H](NC(=O)[C@@H](O)C(C)C)C(C)C)C(=O)N[C@H](C)C(=O)O[C@H](C(=O)N[C@H](C(=O)O[C@H](CC(C)C)C(=O)N[C@H](C)C(=O)O[C@H](C(=O)N[C@H](C(=O)O[C@H](CC(C)C)C(=O)N[C@H](C)C(=O)O)C(C)C)C(C)C)C(C)C)C(C)C
[1]
  Vacuole response: 12000 ng/mL

## CC(C)C[C@@H]1OC(=O)[C@H](C(C)C)NC(=O)[C@@H](C(C)C)OC(=O)[C@@H](C)NC(=O)[C@H](CC(C)C)OC(=O)[C@H](C(C)C)NC(=O)[C@@H](C(C)C)OC(=O)[C@@H](C)NC(=O)[C@H](CC(C)C)OC(=O)[C@H](C(C)C)NC(=O)[C@@H](C(C)C)OC(=O)[C@@H](C)NC1=O (stereo in doubt; form 1)
[1]
  Vacuole response: 5 ng/mL
[2]
  Latency: 5.3 min
[3]
  Latency: 6.3 min
[4]
  Latency: 5.9 min
[5]
  Latency: 4.4 min
[6]
  Latency: 15 min
[7]
  Latency: 5.7 min
[8]
  No. of suncus vomited: 3
[9]
  No. of suncus vomited: 0
[10]
  No. of suncus vomited: 5
[11]
  No. of suncus vomited: 1
[12]
  No. of suncus vomited: 0
[13]
  No. of suncus vomited: 2
[14]
  No. of suncus vomited: 1
[15]
  No. of vomiting episodes: 7.3
[16]
  No. of vomiting episodes: 5.3
[17]
  No. of vomiting episodes: 8.4
[18]
  No. of vomiting episodes: 7
[19]
  No. of vomiting episodes: 4
[20]
  No. of vomiting episodes: 6.8
[21]
  No. of vomiting episodes: 3

## CC(C)C[C@@H]1OC(=O)[C@H](C(C)C)NC(=O)[C@@H](C(C)C)OC(=O)[C@@H](C)NC(=O)[C@H](CC(C)C)OC(=O)[C@H](C(C)C)NC(=O)[C@@H](C(C)C)OC(=O)[C@@H](C)NC(=O)[C@H](CC(C)C)OC(=O)[C@H](C(C)C)NC(=O)[C@@H](C(C)C)OC(=O)[C@@H](C)NC1=O (stereo in doubt; form 2)
[1]
  Vacuole response: 3 ng/mL
[2]
  Latency: 6 min
[3]
  Latency: 8.3 min
[5]
  Latency: 8.2 min
[7]
  Latency: 7 min
[22]
  Latency: 6 min
[8]
  No. of suncus vomited: 5
[23]
  No. of suncus vomited: 3
[24]
  No. of suncus vomited: 5
[11]
  No. of suncus vomited: 0
[14]
  No. of suncus vomited: 0
[15]
  No. of vomiting episodes: 10.3
[16]
  No. of vomiting episodes: 6.3
[18]
  No. of vomiting episodes: 7.6
[20]
  No. of vomiting episodes: 5
[25]
  No. of suncus vomited: 1
